Source: ChEMBL document CHEMBL1126529, “A diazine heterocycle replaces a six-membered hydrogen-bonded array in the active site of scytalone dehydratase” (Bioorg Med Chem Lett, 1993)

What was measured:
Scytalone dehydratase [1] = target: T1, Scytalone dehydratase (Magnaporthe oryzae (strain 70-15 / FGSC 8958) (Rice blast fungus)(Pyricularia oryzae), UniProt P56221); test: The inhibitory activity (Ki) of the deprotonated compound was measured against scytalone dehydratase at pH 9.8; parameters: species or system Pyricularia grisea
T1 sequence (P56221 whole entry): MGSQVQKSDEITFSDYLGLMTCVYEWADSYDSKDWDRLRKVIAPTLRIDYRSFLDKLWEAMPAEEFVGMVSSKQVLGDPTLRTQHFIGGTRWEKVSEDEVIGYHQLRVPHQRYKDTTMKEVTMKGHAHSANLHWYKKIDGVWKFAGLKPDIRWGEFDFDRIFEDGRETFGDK

Scytalone dehydratase [2] = target: T1, Scytalone dehydratase; test: The inhibitory activity (Ki) of the protonated compound was measured against scytalone dehydratase at pH 7.0; parameters: species or system Pyricularia grisea

| SMILES | Ki (Scytalone dehydratase [1]) | Ki (Scytalone dehydratase [2]) |
| --- | --- | --- |
| c1ccc(CCCNc2nccc3ccccc23)cc1 | 2300 nM | 6.7 µM |
| O=C(NCCCc1ccccc1)c1ccccc1O | 230 nM | 0.0073 µM |
| c1ccc(CCCNc2ccnc3ccccc23)cc1 | 45000 nM | 88 µM |
| c1ccc(CCCNc2ncnc3ccccc23)cc1 | 19 nM | 1.8 µM |
